Measured values taken from ChEMBL document CHEMBL1201861, “Genomics of Drug Sensitity in Cancer screening data, Wellcome Trust Sanger Institute”.

What was measured:
Test in all cases: cells
KY821 = assay type: functional, cell-based; settings: Homo sapiens;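 further: growth inhibition of human KY821 cells, read out by a cell viability assay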
Description: SANGER: Inhibition of human KY821 cell growth in a cell viability assay.

ML-2 = assay type: functional, cell-based; settings: Homo sapiens;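 further: growth inhibition of ML-2 cells, measured with a cell viability readout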
Description: SANGER: Inhibition of human ML-2 cell growth in a cell viability assay.

SW 962 = assay type: functional, cell-based, Homo sapiens; settings: Homo sapiens, SW 962;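 further: growth inhibition of human SW962 cells, read out by a cell viability assay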
Description: SANGER: Inhibition of human SW962 cell growth in a cell viability assay.

MDA-MB-415 = assay type: functional, cell-based; settings: Homo sapiens
OVCAR-8 = assay type: functional, cell-based, Homo sapiens; settings: Homo sapiens, OVCAR-8;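 further: growth inhibition of human OVCAR-8 cells, read out by a cell viability assay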
Description: SANGER: Inhibition of human OVCAR-8 cell growth in a cell viability assay.

LK-2 = assay type: functional, cell-based, Homo sapiens; settings: Homo sapiens, LK-2;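 further: growth inhibition of LK-2 cells, read out with a viability assay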
Description: SANGER: Inhibition of human LK-2 cell growth in a cell viability assay.

ES1 = assay type: functional, cell-based, Homo sapiens; settings: Homo sapiens, ES1;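 further: growth inhibition of ES1 cells, read out with a cell viability assay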
Description: SANGER: Inhibition of human ES1 cell growth in a cell viability assay.

DSH1 = assay type: functional, cell-based, Homo sapiens; settings: Homo sapiens, DSH1;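 further: growth inhibition of human DSH1 cells, measured with a cell viability readout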
Description: SANGER: Inhibition of human DSH1 cell growth in a cell viability assay.

SW1463 = assay type: functional, cell-based, Homo sapiens; settings: Homo sapiens, SW1463;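 further: growth inhibition of SW1463 cells, determined with a cell viability assay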
Description: SANGER: Inhibition of human SW1463 cell growth in a cell viability assay.

TGBC24TKB = assay type: functional, cell-based, Homo sapiens; settings: Homo sapiens, TGBC24TKB;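 further: growth inhibition of human TGBC24TKB cells, read out with a cell viability assay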
Description: SANGER: Inhibition of human TGBC24TKB cell growth in a cell viability assay.

HLE = assay type: functional, cell-based, Homo sapiens; settings: Homo sapiens, HLE;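 further: growth inhibition of human HLE cells, read out by a cell viability assay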
Description: SANGER: Inhibition of human HLE cell growth in a cell viability assay.

CGTH-W-1 = assay type: functional, cell-based, Homo sapiens; settings: Homo sapiens, CGTH-W-1;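 further: growth inhibition of human CGTH-W-1 cells measured by cell viability assay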
Description: SANGER: Inhibition of human CGTH-W-1 cell growth in a cell viability assay.

NCI-H1395 = assay type: functional, cell-based, Homo sapiens; settings: Homo sapiens, NCI-H1395;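 further: cell viability assay read-out quantifying reduced proliferation of human NCI-H1395 cells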
Description: SANGER: Inhibition of human NCI-H1395 cell growth in a cell viability assay.

NCI-H446 = assay type: functional, cell-based; settings: Homo sapiens;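 further: growth inhibition of NCI-H446 cells determined by a cell viability assay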
Description: SANGER: Inhibition of human NCI-H446 cell growth in a cell viability assay.

NEC8 = assay type: functional, cell-based, Homo sapiens; settings: Homo sapiens, NEC8;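 further: growth inhibition of human NEC8 cells, read out by a cell viability assay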
Description: SANGER: Inhibition of human NEC8 cell growth in a cell viability assay.

SK-MEL-1 = assay type: functional, cell-based; settings: Homo sapiens;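 further: growth inhibition of human SK-MEL-1 cells, read out by a cell viability assay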
Description: SANGER: Inhibition of human SK-MEL-1 cell growth in a cell viability assay.

PSN1 = assay type: functional, cell-based, Homo sapiens; settings: Homo sapiens, PSN1;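 further: suppression of growth of human PSN1 cells, read out by a cell viability assay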
Description: SANGER: Inhibition of human PSN1 cell growth in a cell viability assay.

RMG-I = assay type: functional, cell-based, Homo sapiens; settings: Homo sapiens, RMG-I;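 further: growth inhibition of human RMG-I cells, read out with a cell viability assay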
Description: SANGER: Inhibition of human RMG-I cell growth in a cell viability assay.

786-0 = assay type: functional, cell-based, Homo sapiens; settings: Homo sapiens
Description: SANGER: Inhibition of human 786-0 cell growth in a cell viability assay.

SNU1 = assay type: functional, cell-based; settings: Homo sapiens;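 further: growth inhibition of human NCI-SNU-1 cells, measured with a cell viability assay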
Description: SANGER: Inhibition of human NCI-SNU-1 cell growth in a cell viability assay.

CAKI-1 = assay type: functional, cell-based, Homo sapiens; settings: Homo sapiens, CAKI-1;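 further: growth inhibition of CAKI-1 cells, measured by a cell viability assay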
Description: SANGER: Inhibition of human CAKI-1 cell growth in a cell viability assay.

HCC2218 = assay type: functional, cell-based; settings: Homo sapiens;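 further: cell viability assay read-out, with IC50 given as the concentration that inhibits growth of the cell line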
Description: SANGER: Inhibition of human HCC2218 cell growth in a cell viability assay.

KU-19-19 = assay type: functional, cell-based, Homo sapiens; settings: Homo sapiens, KU-19-19
Description: SANGER: Inhibition of human KU-19-19 cell growth in a cell viability assay.

HGC-27 = assay type: functional, cell-based, Homo sapiens; settings: Homo sapiens, HGC-27;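 further: growth inhibition of human HGC-27 cells, read out in a cell viability assay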
Description: SANGER: Inhibition of human HGC-27 cell growth in a cell viability assay.

Lu-65 = assay type: functional, cell-based; settings: Homo sapiens;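 further: growth inhibition of Lu-65 cancer cells, read out by a cell viability assay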
Description: SANGER: Inhibition of human LU-65 cell growth in a cell viability assay.

MFH-ino = assay type: functional, cell-based; settings: Homo sapiens;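 further: growth inhibition of human MFH-ino cells, read out by a cell viability assay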
Description: SANGER: Inhibition of human MFH-ino cell growth in a cell viability assay.

EOL1 = assay type: functional, cell-based; settings: Homo sapiens;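 further: growth inhibition of EoL-1 cells, read out by a cell viability assay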
Description: SANGER: Inhibition of human EoL-1-cell cell growth in a cell viability assay.

EW-1 = assay type: functional, cell-based, Homo sapiens; settings: Homo sapiens, EW-1
Description: SANGER: Inhibition of human EW-1 cell growth in a cell viability assay.

PA-1 = assay type: functional, cell-based, Homo sapiens; settings: Homo sapiens, PA-1;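 further: IC50 for suppression of PA-1 cell proliferation, determined with a cell viability read-out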
Description: SANGER: Inhibition of human PA-1 cell growth in a cell viability assay.

A-427 = assay type: functional, cell-based, Homo sapiens; settings: Homo sapiens, A-427;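 further: growth inhibition of human A-427 cells, read out by a cell viability assay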
Description: SANGER: Inhibition of human A427 cell growth in a cell viability assay.

J82 = assay type: functional, cell-based; settings: Homo sapiens;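 further: growth inhibition of J82 cells, read out with a cell viability assay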
Description: SANGER: Inhibition of human J82 cell growth in a cell viability assay.

LB373-MEL-D = assay type: functional, cell-based, Homo sapiens; settings: Homo sapiens, LB373-MEL-D;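 further: growth inhibition of the cell line, read out in a cell viability assay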
Description: SANGER: Inhibition of human LB373-MEL-D cell growth in a cell viability assay.

SiHa = assay type: functional, cell-based, Homo sapiens; settings: Homo sapiens, SiHa;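 further: Viability-based readout of growth inhibition in SiHa cells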
Description: SANGER: Inhibition of human SiHa cell growth in a cell viability assay.

HCC1937 = assay type: functional, cell-based, Homo sapiens; settings: Homo sapiens, HCC1937;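 further: growth inhibition measured with a cell viability read-out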
Description: SANGER: Inhibition of human HCC1937 cell growth in a cell viability assay.

HuTu80 = assay type: functional, cell-based, Homo sapiens, HUTU-80; settings: Homo sapiens, HuTu80;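 further: growth inhibition of HuTu80 human cells, determined with a cell viability readout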
Description: SANGER: Inhibition of human HUTU-80 cell growth in a cell viability assay.

EW-11 = assay type: functional, cell-based, Homo sapiens; settings: Homo sapiens, EW-11;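 further: growth inhibition of human EW-11 cells, measured with a cell viability assay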
Description: SANGER: Inhibition of human EW-11 cell growth in a cell viability assay.

EGI-1 = assay type: functional, cell-based, Homo sapiens; settings: Homo sapiens, EGI-1;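 further: cell viability readout used to gauge growth inhibition of EGI-1 cells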
Description: SANGER: Inhibition of human EGI-1 cell growth in a cell viability assay.

EFO-27 = assay type: functional, cell-based, Homo sapiens; settings: Homo sapiens, EFO-27;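 further: growth inhibition of EFO-27 cells, read out with a cell viability assay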
Description: SANGER: Inhibition of human EFO-27 cell growth in a cell viability assay.

NCI-H1770 = assay type: functional, cell-based; settings: Homo sapiens;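 further: growth inhibition of NCI-H1770 cells determined with a viability readout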
Description: SANGER: Inhibition of human NCI-H1770 cell growth in a cell viability assay.

KMOE-2 = assay type: functional, cell-based; settings: Homo sapiens;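 further: growth inhibition of human KMOE-2 cells, read out with a cell viability assay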
Description: SANGER: Inhibition of human KMOE-2 cell growth in a cell viability assay.

TE-9 = assay type: functional, cell-based, Homo sapiens; settings: Homo sapiens, TE-9;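 further: cell growth inhibition, measured with a cell viability readout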
Description: SANGER: Inhibition of human TE-9 cell growth in a cell viability assay.

PC-14 = assay type: functional, cell-based, Homo sapiens; settings: Homo sapiens, PC-14;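 further: cell viability assay measuring inhibition of PC-14 cell growth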
Description: SANGER: Inhibition of human PC-14 cell growth in a cell viability assay.

LS-1034 = assay type: functional, cell-based, Homo sapiens; settings: Homo sapiens, LS-1034
Description: SANGER: Inhibition of human LS-1034 cell growth in a cell viability assay.

MC-IXC = assay type: functional, cell-based, Homo sapiens; settings: Homo sapiens, MC-IXC;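 further: growth inhibition of MC-IXC cells, read out with a cell viability assay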
Description: SANGER: Inhibition of human MC-IXC cell growth in a cell viability assay.

NCI-H1993 = assay type: functional, cell-based, Homo sapiens; settings: Homo sapiens, NCI-H1993;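 further: growth inhibition of the cancer cell line, assessed with a cell viability assay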
Description: SANGER: Inhibition of human NCI-H1993 cell growth in a cell viability assay.

5637 = assay type: functional, cell-based, Homo sapiens; settings: Homo sapiens
Description: SANGER: Inhibition of human 5637 cell growth in a cell viability assay.

NCI-H661 = assay type: functional, cell-based, Homo sapiens; settings: Homo sapiens, NCI-H661;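 further: cell viability assay read-out, IC50 being the concentration that inhibits growth of the cells by half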
Description: SANGER: Inhibition of human NCI-H661 cell growth in a cell viability assay.

SAS = assay type: functional, cell-based, Homo sapiens; settings: Homo sapiens, SAS;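 further: growth inhibition of SAS cells, read out with a cell viability assay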
Description: SANGER: Inhibition of human SAS cell growth in a cell viability assay.

COLO-320-HSR = assay type: functional, cell-based; settings: Homo sapiens;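 further: growth inhibition of COLO-320-HSR cells, determined with a cell viability assay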
Description: SANGER: Inhibition of human COLO-320-HSR cell growth in a cell viability assay.

P12-Ichikawa = assay type: functional, cell-based; settings: Homo sapiens
HOP-62 = assay type: functional, cell-based, Homo sapiens; settings: Homo sapiens, HOP-62;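 further: cell growth inhibition determined with a viability assay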
Description: SANGER: Inhibition of human HOP-62 cell growth in a cell viability assay.

CHL-1 = assay type: functional, cell-based, Homo sapiens; settings: Homo sapiens, CHL-1;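 further: cell growth inhibition, read out with a cell viability assay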
Description: SANGER: Inhibition of human CHL-1 cell growth in a cell viability assay.

In the case of COc1cc([C@@H]2c3cc4c(cc3[C@@H](O[C@@H]3O[C@@H]5CO[C@@H](C)O[C@H]5[C@H](O)[C@H]3O)[C@H]3COC(=O)[C@H]23)OCO4)cc(OC)c1O [ETOPOSIDE], the IC50 (KY821) is reported as greater than 16 µM, the IC50 (ML-2) is reported as 0.178 µM and the IC50 (SW 962) is reported as greater than 16 µM. It also gave an IC50 (MDA-MB-415) greater than 16 µM, an IC50 (OVCAR-8) of 1.09 µM and an IC50 (LK-2) of 1.41 µM. It also gave an IC50 (ES1) of 0.254 µM, an IC50 (DSH1) of 2.36 µM and an IC50 (SW1463) greater than 16 µM. It also gave an IC50 (TGBC24TKB) greater than 16 µM, an IC50 (HLE) of 0.534 µM and an IC50 (CGTH-W-1) of 0.0574 µM. The IC50 (NCI-H1395) was greater than 16 µM, the IC50 (NCI-H446) was greater than 16 µM and the IC50 (NEC8) was 0.539 µM. The IC50 (SK-MEL-1) was greater than 16 µM, the IC50 (PSN1) was greater than 16 µM and the IC50 (RMG-I) was greater than 16 µM. For the same compound, the IC50 (786-0) was 0.492 µM, the IC50 (SNU1) was 1.75 µM and the IC50 (CAKI-1) was 6.65 µM. The IC50 (HCC2218) was greater than 16 µM, the IC50 (KU-19-19) was greater than 16 µM and the IC50 (HGC-27) was 0.102 µM. For the same compound, the IC50 (Lu-65) was greater than 16 µM, the IC50 (MFH-ino) was 0.751 µM and the IC50 (EOL1) was 0.302 µM. The IC50 (EW-1) was 1.46 µM, the IC50 (PA-1) was 0.132 µM and the IC50 (A-427) was 0.103 µM. For the same compound, the IC50 (J82) was 3.34 µM, the IC50 (LB373-MEL-D) was greater than 16 µM and the IC50 (SiHa) was greater than 16 µM. The IC50 (HCC1937) was 15.8 µM, the IC50 (HuTu80) was 0.217 µM and the IC50 (EW-11) was 4.77 µM. For the same compound, the IC50 (EGI-1) was 3.27 µM, the IC50 (EFO-27) was 3.36 µM and the IC50 (NCI-H1770) was 3.87 µM. For the same compound, the IC50 (KMOE-2) was 8.04 µM, the IC50 (TE-9) was 0.0559 µM and the IC50 (PC-14) was 9.72 µM. For the same compound, the IC50 (LS-1034) was greater than 16 µM, the IC50 (MC-IXC) was 0.115 µM and the IC50 (NCI-H1993) was greater than 16 µM. For the same compound, the IC50 5637 was 0.867 µM, the IC50 (NCI-H661) was 4.34 µM and the IC50 (SAS) was 1.27 µM. For the same compound, the IC50 (COLO-320-HSR) was 9.73 µM, the IC50 (P12-Ichikawa) was 0.317 µM and the IC50 (HOP-62) was 0.524 µM. For the same compound, the IC50 (CHL-1) was 0.883 µM.

Work on Cc1cnc(-c2cnc(NCCNc3ccc(C#N)cn3)nc2-c2ccc(Cl)cc2Cl)[nH]1 [LADUVIGLUSIB] yielded an IC50 (KY821) greater than 2.56 µM, an IC50 (ML-2) greater than 2.56 µM and an IC50 (SW 962) greater than 2.56 µM. It also gave an IC50 (MDA-MB-415) greater than 2.56 µM, an IC50 (OVCAR-8) greater than 2.56 µM and an IC50 (LK-2) greater than 2.56 µM. It also gave an IC50 (ES1) greater than 2.56 µM, an IC50 (DSH1) greater than 2.56 µM and an IC50 (SW1463) greater than 2.56 µM. The IC50 (TGBC24TKB) was greater than 2.56 µM, the IC50 (HLE) was greater than 2.56 µM and the IC50 (CGTH-W-1) was greater than 2.56 µM. The IC50 (NCI-H1395) was greater than 2.56 µM, the IC50 (NCI-H446) was greater than 2.56 µM and the IC50 (NEC8) was greater than 2.56 µM. It also gave an IC50 (SK-MEL-1) greater than 2.56 µM, an IC50 (PSN1) greater than 2.56 µM and an IC50 (RMG-I) greater than 2.56 µM. The IC50 (786-0) was greater than 2.56 µM, the IC50 (SNU1) was greater than 2.56 µM and the IC50 (CAKI-1) was greater than 2.56 µM. For the same compound, the IC50 (HCC2218) was greater than 2.56 µM, the IC50 (KU-19-19) was greater than 2.56 µM and the IC50 (HGC-27) was greater than 2.56 µM. The IC50 (Lu-65) was greater than 2.56 µM, the IC50 (MFH-ino) was greater than 2.56 µM and the IC50 (EOL1) was greater than 2.56 µM. It also gave an IC50 (EW-1) greater than 2.56 µM, an IC50 (PA-1) greater than 2.56 µM and an IC50 (A-427) greater than 2.56 µM. It also gave an IC50 (J82) greater than 2.56 µM, an IC50 (LB373-MEL-D) greater than 2.56 µM and an IC50 (SiHa) greater than 2.56 µM. For the same compound, the IC50 (HCC1937) was greater than 2.56 µM, the IC50 (HuTu80) was greater than 2.56 µM and the IC50 (EW-11) was greater than 2.56 µM. The IC50 (EGI-1) was greater than 2.56 µM, the IC50 (EFO-27) was greater than 2.56 µM and the IC50 (NCI-H1770) was greater than 2.56 µM. The IC50 (KMOE-2) was greater than 2.56 µM, the IC50 (TE-9) was greater than 2.56 µM and the IC50 (PC-14) was greater than 2.56 µM. It also gave an IC50 (LS-1034) greater than 2.56 µM, an IC50 (MC-IXC) greater than 2.56 µM and an IC50 (NCI-H1993) greater than 2.56 µM. It also gave an IC50 5637 greater than 2.56 µM, an IC50 (NCI-H661) greater than 2.56 µM and an IC50 (SAS) greater than 2.56 µM. For the same compound, the IC50 (COLO-320-HSR) was greater than 2.56 µM, the IC50 (P12-Ichikawa) was greater than 2.56 µM and the IC50 (HOP-62) was greater than 2.56 µM. The IC50 (CHL-1) was greater than 2.56 µM.
